# From patent US10782295B2, “Cysteine-reactive ligand discovery in proteomes” (THE SCRIPPS RESEARCH INSTITUTE, priority 2013, dated 2020)
# Molecular target: T1, RTN4 (Homo sapiens, UniProt Q9NQC3)
# T1 construct: directly in native proteomes; endogenous in cells; host or cells: MDA-MB-231
# T1 sequence (Q9NQC3 1-1192): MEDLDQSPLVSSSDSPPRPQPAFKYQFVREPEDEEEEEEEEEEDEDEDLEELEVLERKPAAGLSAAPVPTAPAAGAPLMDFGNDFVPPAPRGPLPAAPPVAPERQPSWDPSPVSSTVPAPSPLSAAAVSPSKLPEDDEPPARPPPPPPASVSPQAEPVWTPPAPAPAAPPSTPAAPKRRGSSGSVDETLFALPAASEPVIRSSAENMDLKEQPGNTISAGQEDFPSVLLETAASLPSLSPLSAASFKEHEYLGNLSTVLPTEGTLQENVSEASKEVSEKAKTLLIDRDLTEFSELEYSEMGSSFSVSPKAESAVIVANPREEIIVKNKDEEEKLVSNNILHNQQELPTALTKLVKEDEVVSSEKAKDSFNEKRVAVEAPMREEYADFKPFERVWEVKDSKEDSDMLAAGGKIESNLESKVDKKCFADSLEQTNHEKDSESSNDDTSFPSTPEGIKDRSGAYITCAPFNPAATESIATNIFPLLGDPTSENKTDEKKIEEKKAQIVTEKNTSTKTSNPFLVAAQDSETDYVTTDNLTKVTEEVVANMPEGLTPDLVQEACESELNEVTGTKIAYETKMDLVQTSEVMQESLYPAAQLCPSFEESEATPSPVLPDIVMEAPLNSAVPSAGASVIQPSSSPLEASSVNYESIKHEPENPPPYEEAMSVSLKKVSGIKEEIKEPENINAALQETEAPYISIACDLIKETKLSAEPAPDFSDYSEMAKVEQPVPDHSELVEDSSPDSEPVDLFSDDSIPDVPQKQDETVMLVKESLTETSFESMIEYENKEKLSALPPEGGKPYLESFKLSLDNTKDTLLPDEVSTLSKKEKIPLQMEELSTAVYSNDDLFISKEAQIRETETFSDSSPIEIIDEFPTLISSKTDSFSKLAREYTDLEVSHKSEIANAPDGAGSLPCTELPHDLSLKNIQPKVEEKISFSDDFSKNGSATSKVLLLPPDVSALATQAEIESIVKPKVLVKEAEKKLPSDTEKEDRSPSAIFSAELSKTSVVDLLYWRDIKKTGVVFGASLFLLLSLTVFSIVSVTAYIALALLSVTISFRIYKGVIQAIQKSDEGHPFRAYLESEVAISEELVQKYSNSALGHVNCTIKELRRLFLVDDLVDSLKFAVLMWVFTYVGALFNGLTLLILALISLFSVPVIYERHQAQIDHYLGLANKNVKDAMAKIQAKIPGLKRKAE
# Test: competitive isoTOP-ABPP, MDA-MB-231 soluble proteome
# Assay type: binding
# Conditions: 100 μM LDE, 60 min; peptide YSNSALGHVNC*TIK
# Method: Here, we envisioned that isoTOP-ABPP could be advanced to discover and quantify reactions between cysteines in proteomes and any electrophilic compound. In this advanced, ‘competitive’ version of isoTOP-ABPP (FIG. 1a), a proteome is treated with an electrophile (experimental sample) or DMSO (control sample). Both proteomic samples are then labeled with the IA probe and conjugated by CuAAC to light and heavy azide-biotin tags, respectively. The light and heavy samples are then mixed and subjected to our described isoTOP-ABPP protocol for enrichment, identification, and quantification of IA-labeled cysteines^30. Electrophile-modified cysteines are quantified by measuring the MS1 chromatographic peak ratios (R values) for heavy (DMSO-treated) over light (electrophile-treated) samples, with higher R values reflecting greater sensitivity to the electrophile. In this format, competitive isoTOP-ABPP can assay electrophiles against 1000+ cysteines in parallel directly in native proteomes without requiring any chemical modification to the electrophiles themselves.
# Competitive isoTOP-ABPP experiments were performed in quadruplicate using the soluble proteome of the human breast cancer cell line MDA-MB-231 cell line. Proteomes were treated with 100 μM HNE, 15d-PGJ2, or 2-HD, for 60 minutes, followed by the IA-probe (100 μM, 60 min) A total of ˜1400 cysteine reactivities were quantified across the aggregate data set, with at least 900 cysteine reactivities quantified for each LDE (FIG. 2a) more than 750 of which were quantified for all the three electrophiles.
# The MDA-MB-231 cell proteome was treated with varying concentrations of HNE (5, 10, 50, 100 and 500 μM) for 60 min and then the IA-labeling profile of each reaction was quantitatively compared to a DMSO-control sample by isoTOP-ABPP.
# HNE was purchased from EMD biosciences, 15d-PGJ2 was purchased from Cayman Chemicals and 2-HD was purchased from Santa Cruz Biotechnology. Proteome samples were diluted to a 4 mg protein/mL solution in PBS. For each profiling experiment, one aliquot of the proteome sample (0.5 mL) was treated with 100 μM of LDE using 5 μL of a 10 mM stock and the other aliquot was treated with 5 μL of either ethanol (for HNE and 15d-PGJ2) or DMSO (for 2-HD) as control. For the concentration-dependent profiling experiments using HNE, aliquots of the proteomes (0.5 mL each) were treated with 5, 10, 50, 100 and 500 μM of HNE using 5 μL of 0.5, 1.0, 5, 10 and 50 mM of stock solution, respectively. After 60 minutes of treatment at room temperature, both the LDE-treated and control aliquots were passed through a NAP-5 Sephadex column (GE healthcare) to remove any unreacted LDE. The volume of each aliquot was increased to 1 mL with the concentration at 2 mg/mL after this step.
# Each of the control and LDE-treated proteome samples (˜2 mg protein/mL in 1 mL volume) was treated with 100 μM of IA-probe using 10 μL of a 10 mM stock in DMSO. The labeling reactions were incubated at room temperature for 1 hour. Click chemistry (acetylene-azide cycloaddition) was performed by the addition of 100 μM of either the Heavy-TEV-Tag (for the control sample) or Light-TEV-Tag (for the LDE-treated sample) (20 μL of a 5 mM stock), 1 mM TCEP (fresh 50× stock in water), 100 μM ligand (17× stock in DMSO:t-Butanol 1:4) and 1 mM CuSO4 (50× stock in water). Samples were allowed to react at room temperature for 1 hour. After the click chemistry step, the light and heavy-labeled samples were mixed together and centrifuged (5900×g, 4 min, 4° C.) to pellet the precipitated proteins.
# The pellets were washed twice in cold MeOH, after which the pellet was solubilized in PBS containing 1.2% SDS via sonication and heating (5 min, 80° C.). Samples were subjected to streptavidin enrichment of probe-labeled proteins, sequential on-bead trypsin and TEV digestion, and liquid chromatography-mass spectrometry (LC-MS) analysis according to the published isoTOP-ABPP protocol^30. […]
row,SMILES,R value (isoTOP-ABPP ratio heavy/light) for IA-labeled cysteine of RTN4
1,"CCCCC/C=C/C=C1/C(=O)C=C[C@@H]1C/C=C\CCCC(=O)O [PGJ2, 15-deoxy-Δ12,14-prostaglandin J2]",2.93
2,"CCCCCC(O)/C=C/C=O (stereo not drawn) [4-HNE, 4-Hydroxynonenal]",11.78
3,"CCCCCCCCCCCCC/C=C/C=O [2-HD, 2-trans-hexadecenal]",1.1
